Measured values reported in patent US7750013B2, “N-oxides as prodrugs of piperazine and piperidine derivatives” (Solvay Pharmaceuticals, B.V., priority 2005, dated 2010).

What was measured:
5-HT1A = 5-HT1A (Homo sapiens, UniProt P08908); experiment: In vitro receptor affinity, 5-HT1A; format: binding
Protocol: (§1) The binding data collected in the table below (Example 5: pharmacological test results) were either obtained by CEREP (128, rue Danton, 92500 Rueil-Malmaison, France) or at Solvay Pharmaceuticals B.V. (C. J. van Houtenlaan 36, 1381 CP Weesp, The Netherlands), using well documented standard procedures. The affinities for dopamine-D2 and 5-HT1A receptors for instance, was measured as described by Creese I, Schneider R and Snyder S H, [^3H]-Spiroperidol labels dopamine receptors in rat pituitary and brain, Eur J Pharmacol […], 46: 377-381 and Gozlan H, El Mestikawy S, Pichat L, Glowinsky J and Hamon M, 1983, Identification of presynaptic serotonin autoreceptors using a new ligand ^3H-PAT, Nature 1983, 305: 140-142.

[1] = system: 6-OH-dopamine induced turning behavior in rats; experiment: 6-OH-dopamine induced turning behavior in rats; format: in vivo; conditions: Rattus norvegicus, po, read-out: Antagonism of 6-OH dopamine induced turning behavior after oral dosing: ED50
Protocol: 6-OH-dopamine induced turning behavior in rats (Ungerstedt U, 6-OH-DA induced degeneration of central monoamine neurons, Eur. J. Pharmacol. 1968 5: 107-110). Specifically:
Male rats (Wistar, Harlan, Netherlands; 400-500 g at time of experiment) are housed in a temperature (20-21±2° C.) and humidity controlled environment and receive water ad libitum except during experimental sessions. Food is restricted to approximately 15 g per rat per day. A 12-hour light-dark cycle (lights on 07.00-19.00 hour) is used. All experimental procedures are conducted in accordance with Dutch law and conform to local animal care and use committee stipulations.
Unilateral 6-hydroxydopamine (6-OHDA) lesions of the substantia nigra zona compacta are performed using a stereotaxic procedure. […] Good turning rats are defined as those which elicited at least 20 contralateral turns following amphetamine (2.5 mg/kg sc) in the 5 min time epoch beginning 25 min after administration and a mean of at least 20 contralateral turns recorded over a 30 min period after administration of apomorphine (0.25 mg/kg s.c.). […]
Following statistical randomization of the treatment groups rats are pretreated with compounds of the invention (0.1-3 mg/kg p.o.) or vehicle (2 ml/kg) and placed in the rotameters the contralateral rotational behaviour is then measured. […]

Dopamine-D5 = Dopamine-D5 (Homo sapiens, UniProt P21918); experiment: In vitro receptor affinity, Dopamine-D5; format: binding
Protocol: as §1

α2-adrenergic = experiment: In vitro receptor affinity, α2-adrenergic; format: binding; conditions: rat; radioligand [3H]-RX 821002
Protocol: as §1

α1A-adrenergic = α1A-adrenergic (Rattus norvegicus, UniProt P43140); experiment: In vitro receptor affinity, α1A-adrenergic; format: binding
Protocol: as §1

β1-adrenergic = β1-adrenergic (Homo sapiens, UniProt P08588); experiment: In vitro receptor affinity, β1-adrenergic; format: binding
Protocol: as §1

5-HT2A = 5-HT2A (Homo sapiens, UniProt P28223); experiment: In vitro receptor affinity, 5-HT2A; format: binding
Protocol: as §1

Chain of β1-adrenergic (P08588 whole entry): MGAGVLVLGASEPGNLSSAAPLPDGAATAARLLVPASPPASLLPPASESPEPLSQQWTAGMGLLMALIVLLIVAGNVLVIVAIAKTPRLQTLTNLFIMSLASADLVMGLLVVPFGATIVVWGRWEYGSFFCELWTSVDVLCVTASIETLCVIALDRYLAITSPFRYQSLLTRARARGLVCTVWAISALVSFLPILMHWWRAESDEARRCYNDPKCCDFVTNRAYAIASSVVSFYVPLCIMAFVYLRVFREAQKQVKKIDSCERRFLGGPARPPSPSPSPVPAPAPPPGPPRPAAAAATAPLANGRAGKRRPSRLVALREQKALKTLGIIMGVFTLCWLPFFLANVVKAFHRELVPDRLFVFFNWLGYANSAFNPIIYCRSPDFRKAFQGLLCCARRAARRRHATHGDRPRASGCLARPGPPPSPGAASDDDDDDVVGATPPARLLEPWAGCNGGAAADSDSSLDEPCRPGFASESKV
Chain of α1A-adrenergic (P43140 whole entry): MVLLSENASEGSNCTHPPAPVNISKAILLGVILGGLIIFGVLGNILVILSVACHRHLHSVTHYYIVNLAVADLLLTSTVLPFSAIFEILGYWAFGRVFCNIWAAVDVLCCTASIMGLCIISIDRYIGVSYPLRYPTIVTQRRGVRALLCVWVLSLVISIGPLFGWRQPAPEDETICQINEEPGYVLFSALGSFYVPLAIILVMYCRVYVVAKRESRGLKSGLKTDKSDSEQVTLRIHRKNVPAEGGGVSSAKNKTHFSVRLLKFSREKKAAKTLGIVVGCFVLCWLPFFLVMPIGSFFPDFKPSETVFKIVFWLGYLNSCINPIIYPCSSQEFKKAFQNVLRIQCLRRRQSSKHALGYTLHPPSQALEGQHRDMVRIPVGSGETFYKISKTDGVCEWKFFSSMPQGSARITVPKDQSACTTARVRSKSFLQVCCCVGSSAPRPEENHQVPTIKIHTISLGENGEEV
Chain of 5-HT1A (P08908 whole entry): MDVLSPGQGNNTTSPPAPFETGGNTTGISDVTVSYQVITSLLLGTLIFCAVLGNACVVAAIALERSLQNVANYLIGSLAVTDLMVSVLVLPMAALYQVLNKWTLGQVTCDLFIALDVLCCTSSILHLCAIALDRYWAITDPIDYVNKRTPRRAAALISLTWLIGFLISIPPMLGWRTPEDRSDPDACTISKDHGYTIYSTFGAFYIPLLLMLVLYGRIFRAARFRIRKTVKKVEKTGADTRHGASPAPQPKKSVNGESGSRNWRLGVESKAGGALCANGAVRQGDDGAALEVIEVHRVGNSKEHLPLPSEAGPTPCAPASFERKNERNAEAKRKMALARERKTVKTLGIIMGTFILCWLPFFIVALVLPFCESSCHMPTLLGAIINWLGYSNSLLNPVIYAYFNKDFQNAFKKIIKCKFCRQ
Chain of 5-HT2A (P28223 whole entry): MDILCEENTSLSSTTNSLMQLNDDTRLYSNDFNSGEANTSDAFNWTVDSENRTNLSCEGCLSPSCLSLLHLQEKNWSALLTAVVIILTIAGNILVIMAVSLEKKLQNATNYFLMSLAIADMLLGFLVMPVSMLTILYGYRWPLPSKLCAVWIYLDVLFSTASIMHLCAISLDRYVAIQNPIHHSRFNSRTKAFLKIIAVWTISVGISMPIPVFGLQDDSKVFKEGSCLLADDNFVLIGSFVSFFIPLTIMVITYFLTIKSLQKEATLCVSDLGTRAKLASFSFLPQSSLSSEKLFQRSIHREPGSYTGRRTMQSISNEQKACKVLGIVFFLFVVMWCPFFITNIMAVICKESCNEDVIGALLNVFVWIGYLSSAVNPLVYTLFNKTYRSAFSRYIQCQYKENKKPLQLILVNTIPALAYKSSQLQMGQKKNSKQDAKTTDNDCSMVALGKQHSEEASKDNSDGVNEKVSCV
Chain of Dopamine-D5 (P21918 whole entry): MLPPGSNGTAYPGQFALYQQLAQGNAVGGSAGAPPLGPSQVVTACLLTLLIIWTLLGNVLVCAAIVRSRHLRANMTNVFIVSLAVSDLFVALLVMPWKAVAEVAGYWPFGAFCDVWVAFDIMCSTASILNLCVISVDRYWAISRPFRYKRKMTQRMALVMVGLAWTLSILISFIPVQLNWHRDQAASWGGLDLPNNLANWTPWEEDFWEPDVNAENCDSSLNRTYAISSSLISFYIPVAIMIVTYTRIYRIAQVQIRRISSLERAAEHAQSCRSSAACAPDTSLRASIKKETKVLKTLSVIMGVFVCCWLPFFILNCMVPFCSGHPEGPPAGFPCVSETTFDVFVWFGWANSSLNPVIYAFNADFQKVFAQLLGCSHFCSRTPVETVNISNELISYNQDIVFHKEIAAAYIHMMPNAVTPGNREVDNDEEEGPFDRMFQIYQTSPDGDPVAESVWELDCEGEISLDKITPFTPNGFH

SMILES: C[N+]1([O-])CCN(c2cccc3[nH]c(=O)oc23)CC1 [N-oxide of SLV308, N-Oxide of SLV308]
- Ki (5-HT1A): 200 nM
- ED50 [1]: < 1 mg/kg
- Ki (Dopamine-D5): > 1000 nM
- Ki (α2-adrenergic): 500 nM
- Ki (α1A-adrenergic): 630 nM
- Ki (β1-adrenergic): > 1000 nM
- Ki (5-HT2A): > 1000 nM
